Measurements reported in paper PMC11882969 (Nature Communications, 2025).
“And” between values parts separate entries of the source, which are not always exact repeats. Equal values may be shown once.

Columns and labels:
Format in all cases: cell-based
[1] = molecular target: panel of 320 non-olfactory GPCRs (Homo sapiens, UniProt Q13324)
[2] = molecular target: panel of 320 non-olfactory GPCRs (Homo sapiens, UniProt O00270)
[3] = molecular target: panel of 320 non-olfactory GPCRs (Homo sapiens, UniProt P34972)
[4] = molecular target: panel of 320 non-olfactory GPCRs (Homo sapiens, UniProt P28566)
[5] = molecular target: panel of 320 non-olfactory GPCRs (Homo sapiens, UniProt Q01718)
[6] = molecular target: panel of 320 non-olfactory GPCRs (Homo sapiens, UniProt P41143)
[7] = molecular target: panel of 320 non-olfactory GPCRs (Homo sapiens, UniProt Q9Y5X5)
[8] = molecular target: panel of 320 non-olfactory GPCRs (Homo sapiens, UniProt Q9BY21)
[9] = molecular target: panel of 320 non-olfactory GPCRs (Homo sapiens, UniProt P33032)
[10] = molecular target: panel of 320 non-olfactory GPCRs (Homo sapiens, UniProt P25105)
[11] = molecular target: panel of 320 non-olfactory GPCRs (Homo sapiens, UniProt P35410)
[12] = molecular target: panel of 320 non-olfactory GPCRs (Homo sapiens, UniProt P46095)
[13] = molecular target: panel of 320 non-olfactory GPCRs (Homo sapiens, UniProt P25025)
[14] = molecular target: panel of 320 non-olfactory GPCRs (Homo sapiens, UniProt P35408)
[15] = molecular target: panel of 320 non-olfactory GPCRs (Homo sapiens, UniProt P28221)
[16] = molecular target: panel of 320 non-olfactory GPCRs (Homo sapiens, UniProt Q8IZP9)
[17] = molecular target: panel of 320 non-olfactory GPCRs (Homo sapiens, UniProt Q13258)
[18] = molecular target: panel of 320 non-olfactory GPCRs (Homo sapiens, UniProt P47871)
[19] = molecular target: panel of 320 non-olfactory GPCRs (Homo sapiens, UniProt P30556)
[20] = molecular target: panel of 320 non-olfactory GPCRs (Homo sapiens, UniProt P34969)
[21] = molecular target: panel of 320 non-olfactory GPCRs (Homo sapiens, UniProt O75388)
[22] = molecular target: panel of 320 non-olfactory GPCRs (Homo sapiens, UniProt Q6QNK2)
[23] = molecular target: panel of 320 non-olfactory GPCRs (Homo sapiens, UniProt P50052)
[24] = molecular target: panel of 320 non-olfactory GPCRs (Homo sapiens, UniProt Q99679)
[25] = molecular target: panel of 320 non-olfactory GPCRs (Homo sapiens, UniProt O15354)
[26] = molecular target: panel of 320 non-olfactory GPCRs (Homo sapiens, UniProt Q6U736)
[27] = molecular target: panel of 320 non-olfactory GPCRs (Homo sapiens, UniProt Q9GZN0)
[28] = molecular target: panel of 320 non-olfactory GPCRs (Homo sapiens, UniProt O43194)
[29] = molecular target: panel of 320 non-olfactory GPCRs (Homo sapiens, UniProt Q8IYL9)
[30] = molecular target: panel of 320 non-olfactory GPCRs (Homo sapiens, UniProt P41594)
[31] = molecular target: panel of 320 non-olfactory GPCRs (Homo sapiens, UniProt P61073)
[32] = molecular target: panel of 320 non-olfactory GPCRs (Homo sapiens, UniProt Q8IZF2)
[33] = molecular target: panel of 320 non-olfactory GPCRs (Homo sapiens, UniProt P46089)
[34] = molecular target: panel of 320 non-olfactory GPCRs (Homo sapiens, UniProt P35346)
[35] = molecular target: panel of 320 non-olfactory GPCRs (Homo sapiens, UniProt O95136)
[36] = molecular target: panel of 320 non-olfactory GPCRs (Homo sapiens, UniProt Q9UNW8)
[37] = molecular target: panel of 320 non-olfactory GPCRs (Homo sapiens, UniProt Q969N4)

Chain of panel of 320 non-olfactory GPCRs (Homo sapiens, UniProt P34969) (P34969 whole entry): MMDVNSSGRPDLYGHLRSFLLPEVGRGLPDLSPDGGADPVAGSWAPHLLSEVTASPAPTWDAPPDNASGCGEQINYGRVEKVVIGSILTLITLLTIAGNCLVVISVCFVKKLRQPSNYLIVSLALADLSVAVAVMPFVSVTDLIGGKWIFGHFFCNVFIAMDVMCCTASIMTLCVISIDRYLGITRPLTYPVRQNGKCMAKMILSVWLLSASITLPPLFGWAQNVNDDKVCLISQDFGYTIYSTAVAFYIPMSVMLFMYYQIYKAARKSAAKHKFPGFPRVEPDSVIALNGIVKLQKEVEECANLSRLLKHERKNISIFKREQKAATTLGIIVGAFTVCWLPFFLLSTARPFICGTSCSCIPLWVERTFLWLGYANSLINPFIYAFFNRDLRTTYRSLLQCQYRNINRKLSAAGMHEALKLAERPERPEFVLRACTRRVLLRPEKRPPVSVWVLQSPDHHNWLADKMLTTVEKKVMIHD
Chain of panel of 320 non-olfactory GPCRs (Homo sapiens, UniProt Q8IYL9) (Q8IYL9 whole entry): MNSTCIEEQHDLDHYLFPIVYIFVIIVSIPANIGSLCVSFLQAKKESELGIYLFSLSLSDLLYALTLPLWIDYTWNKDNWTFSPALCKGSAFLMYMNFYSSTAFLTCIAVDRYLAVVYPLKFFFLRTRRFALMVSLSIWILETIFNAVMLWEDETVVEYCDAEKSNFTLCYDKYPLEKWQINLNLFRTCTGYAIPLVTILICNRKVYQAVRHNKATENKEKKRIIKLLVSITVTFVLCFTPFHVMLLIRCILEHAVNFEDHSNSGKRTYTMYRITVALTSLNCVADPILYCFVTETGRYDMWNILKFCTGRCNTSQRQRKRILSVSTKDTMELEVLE
Chain of panel of 320 non-olfactory GPCRs (Homo sapiens, UniProt Q13324) (Q13324 whole entry): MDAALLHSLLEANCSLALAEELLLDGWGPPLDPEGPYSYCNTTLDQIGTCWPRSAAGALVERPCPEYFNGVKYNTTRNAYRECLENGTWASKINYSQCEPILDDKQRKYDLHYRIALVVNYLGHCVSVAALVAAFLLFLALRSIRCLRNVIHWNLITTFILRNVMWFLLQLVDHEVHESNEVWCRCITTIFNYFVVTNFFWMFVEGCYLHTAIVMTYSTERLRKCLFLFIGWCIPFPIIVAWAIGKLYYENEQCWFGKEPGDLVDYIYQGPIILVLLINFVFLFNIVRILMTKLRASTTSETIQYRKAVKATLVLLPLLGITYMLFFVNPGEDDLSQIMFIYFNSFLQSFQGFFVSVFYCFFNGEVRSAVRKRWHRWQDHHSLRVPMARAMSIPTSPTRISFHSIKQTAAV
Chain of panel of 320 non-olfactory GPCRs (Homo sapiens, UniProt Q13258) (Q13258 whole entry): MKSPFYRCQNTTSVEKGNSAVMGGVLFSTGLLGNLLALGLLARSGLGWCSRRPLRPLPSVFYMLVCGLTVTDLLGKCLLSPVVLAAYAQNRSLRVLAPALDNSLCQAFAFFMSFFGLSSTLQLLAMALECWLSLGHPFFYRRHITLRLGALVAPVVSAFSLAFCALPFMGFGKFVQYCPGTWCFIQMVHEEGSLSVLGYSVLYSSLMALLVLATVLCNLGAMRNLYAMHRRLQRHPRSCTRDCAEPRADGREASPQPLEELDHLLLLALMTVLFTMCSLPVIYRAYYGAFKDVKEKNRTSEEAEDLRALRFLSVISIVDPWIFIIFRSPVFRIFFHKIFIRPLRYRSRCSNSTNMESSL
Chain of panel of 320 non-olfactory GPCRs (Homo sapiens, UniProt P61073) (P61073 whole entry): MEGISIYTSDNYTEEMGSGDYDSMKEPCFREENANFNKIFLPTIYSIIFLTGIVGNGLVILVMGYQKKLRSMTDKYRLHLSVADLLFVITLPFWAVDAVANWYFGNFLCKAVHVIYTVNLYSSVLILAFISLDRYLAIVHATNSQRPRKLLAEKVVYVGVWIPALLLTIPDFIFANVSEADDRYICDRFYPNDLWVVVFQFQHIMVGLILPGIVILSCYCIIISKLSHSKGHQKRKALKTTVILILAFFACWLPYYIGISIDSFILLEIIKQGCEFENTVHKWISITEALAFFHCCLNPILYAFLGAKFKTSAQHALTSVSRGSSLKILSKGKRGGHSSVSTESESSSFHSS
Chain of panel of 320 non-olfactory GPCRs (Homo sapiens, UniProt O15354) (O15354 27-613): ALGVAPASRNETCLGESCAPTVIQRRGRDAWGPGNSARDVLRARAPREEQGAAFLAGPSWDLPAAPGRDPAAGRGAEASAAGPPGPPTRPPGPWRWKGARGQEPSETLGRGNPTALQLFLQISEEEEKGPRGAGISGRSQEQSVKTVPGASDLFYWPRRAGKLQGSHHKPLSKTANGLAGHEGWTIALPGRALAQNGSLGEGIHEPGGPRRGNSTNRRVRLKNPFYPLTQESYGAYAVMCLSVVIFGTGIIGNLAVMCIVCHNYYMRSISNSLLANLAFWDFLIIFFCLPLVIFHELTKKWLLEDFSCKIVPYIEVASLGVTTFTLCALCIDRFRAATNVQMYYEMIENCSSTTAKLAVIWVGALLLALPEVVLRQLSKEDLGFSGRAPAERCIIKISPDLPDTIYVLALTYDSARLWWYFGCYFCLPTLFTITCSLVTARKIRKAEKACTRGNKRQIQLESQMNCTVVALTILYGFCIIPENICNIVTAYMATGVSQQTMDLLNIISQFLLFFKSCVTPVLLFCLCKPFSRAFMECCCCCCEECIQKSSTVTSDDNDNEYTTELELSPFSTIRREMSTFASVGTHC
Chain of panel of 320 non-olfactory GPCRs (Homo sapiens, UniProt P35346) (P35346 whole entry): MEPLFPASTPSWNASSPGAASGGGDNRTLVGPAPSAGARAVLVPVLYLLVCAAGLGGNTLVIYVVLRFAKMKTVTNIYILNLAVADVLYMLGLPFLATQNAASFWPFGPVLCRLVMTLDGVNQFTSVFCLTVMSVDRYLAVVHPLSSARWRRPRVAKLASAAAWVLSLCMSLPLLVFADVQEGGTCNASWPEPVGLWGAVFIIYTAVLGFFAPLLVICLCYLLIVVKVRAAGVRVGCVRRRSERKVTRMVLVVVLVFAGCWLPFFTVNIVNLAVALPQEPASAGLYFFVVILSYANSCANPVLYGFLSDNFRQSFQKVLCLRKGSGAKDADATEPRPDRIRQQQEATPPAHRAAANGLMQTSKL
Chain of panel of 320 non-olfactory GPCRs (Homo sapiens, UniProt Q8IZP9) (Q8IZP9 38-1017): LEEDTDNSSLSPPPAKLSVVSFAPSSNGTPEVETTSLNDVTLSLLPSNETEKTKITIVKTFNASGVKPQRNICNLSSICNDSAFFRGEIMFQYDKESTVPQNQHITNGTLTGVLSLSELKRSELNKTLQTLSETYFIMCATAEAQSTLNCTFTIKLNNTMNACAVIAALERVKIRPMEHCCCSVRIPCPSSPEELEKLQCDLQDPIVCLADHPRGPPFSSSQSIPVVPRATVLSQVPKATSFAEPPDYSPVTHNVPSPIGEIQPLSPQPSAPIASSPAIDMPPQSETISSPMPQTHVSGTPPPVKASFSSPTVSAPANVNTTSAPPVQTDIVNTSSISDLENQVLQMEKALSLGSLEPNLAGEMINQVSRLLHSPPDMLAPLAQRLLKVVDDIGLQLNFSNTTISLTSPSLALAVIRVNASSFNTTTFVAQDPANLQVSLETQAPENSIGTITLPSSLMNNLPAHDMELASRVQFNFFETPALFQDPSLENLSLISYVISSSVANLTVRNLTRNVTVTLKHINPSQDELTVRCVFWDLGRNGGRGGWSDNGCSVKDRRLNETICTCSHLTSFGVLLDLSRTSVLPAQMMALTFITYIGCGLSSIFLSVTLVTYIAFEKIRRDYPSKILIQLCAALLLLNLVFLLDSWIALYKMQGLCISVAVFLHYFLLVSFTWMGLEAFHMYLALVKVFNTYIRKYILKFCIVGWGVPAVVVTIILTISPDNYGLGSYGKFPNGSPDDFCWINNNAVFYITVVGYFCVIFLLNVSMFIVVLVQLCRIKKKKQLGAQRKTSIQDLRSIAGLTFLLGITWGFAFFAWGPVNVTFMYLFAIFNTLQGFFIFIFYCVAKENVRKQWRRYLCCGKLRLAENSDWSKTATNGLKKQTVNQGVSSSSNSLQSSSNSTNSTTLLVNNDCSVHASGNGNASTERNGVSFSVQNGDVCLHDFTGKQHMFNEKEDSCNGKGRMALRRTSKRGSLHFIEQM
Chain of panel of 320 non-olfactory GPCRs (Homo sapiens, UniProt O95136) (O95136 whole entry): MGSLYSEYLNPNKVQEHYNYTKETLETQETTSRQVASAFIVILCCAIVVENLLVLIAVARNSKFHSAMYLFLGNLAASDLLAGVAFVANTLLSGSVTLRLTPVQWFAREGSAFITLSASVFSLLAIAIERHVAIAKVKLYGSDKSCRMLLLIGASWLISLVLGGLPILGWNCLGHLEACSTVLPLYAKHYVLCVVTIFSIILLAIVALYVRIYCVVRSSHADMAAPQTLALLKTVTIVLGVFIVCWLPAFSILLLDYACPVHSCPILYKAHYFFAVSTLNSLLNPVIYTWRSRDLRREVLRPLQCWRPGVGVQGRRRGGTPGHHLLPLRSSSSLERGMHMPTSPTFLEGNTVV
Chain of panel of 320 non-olfactory GPCRs (Homo sapiens, UniProt P35408) (P35408 whole entry): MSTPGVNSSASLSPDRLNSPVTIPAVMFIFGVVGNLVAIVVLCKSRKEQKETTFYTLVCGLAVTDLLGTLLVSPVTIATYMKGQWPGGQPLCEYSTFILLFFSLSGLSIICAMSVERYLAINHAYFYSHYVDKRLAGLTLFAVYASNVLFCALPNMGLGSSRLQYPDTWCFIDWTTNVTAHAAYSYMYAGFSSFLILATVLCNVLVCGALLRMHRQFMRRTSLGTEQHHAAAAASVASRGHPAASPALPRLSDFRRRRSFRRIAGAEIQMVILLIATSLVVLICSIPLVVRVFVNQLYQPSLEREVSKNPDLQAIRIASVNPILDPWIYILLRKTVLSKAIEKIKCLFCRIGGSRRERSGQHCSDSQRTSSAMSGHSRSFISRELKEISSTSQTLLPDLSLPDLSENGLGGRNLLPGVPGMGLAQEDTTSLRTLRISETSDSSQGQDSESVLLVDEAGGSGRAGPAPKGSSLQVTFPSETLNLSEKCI

Structure (SMILES)	Fold of Basal RLU [1]	Fold of Basal RLU [2]	Fold of Basal RLU [3]	Fold of Basal RLU [4]	Fold of Basal RLU [5]	Fold of Basal RLU [6]	Fold of Basal RLU [7]	Fold of Basal RLU [8]	Fold of Basal RLU [9]	Fold of Basal RLU [10]	Fold of Basal RLU [11]	Fold of Basal RLU [12]	Fold of Basal RLU [13]	Fold of Basal RLU [14]	Fold of Basal RLU [15]	Fold of Basal RLU [16]	Fold of Basal RLU [17]	Fold of Basal RLU [18]	Fold of Basal RLU [19]	Fold of Basal RLU [20]	also measured
COC(=O)[C@@](C)(NC(=O)c1cc(C)n(-c2cccc(C(F)(F)F)c2)n1)c1cccs1 [‘1350]	0.8 and 0.9	1.1 fold and 1.4 fold and 1.2 fold and 1.6 fold	8.2 and 8.7 and 8.6	1.3 fold and 1.5 fold and 1.2 fold	1 and 1.3 and 0.7	1 fold and 0.9 fold and 0.8 fold	0.3	1 fold and 0.9 fold and 1.1 fold	1.3 fold and 1 fold and 1.2 fold and 1.1 fold	1.3 fold and 0.9 fold and 1.7 fold	1.9 and 1.3 and 1 and 1.2	1.1 fold and 0.8 fold and 1 fold	0.8 fold and 1 fold and 1.1 fold	1.7 fold and 1.2 fold and 1.5 fold	1.1 fold and 0.9 fold and 1.2 fold	1.1 fold and 1.2 fold and 0.9 fold and 0.7 fold	0.9 and 0.6 and 0.8	0.8 and 1 and 1.2 and 1.1	1.1 and 1.3 and 1.2	0.9 fold and 1.4 fold and 1 fold	Fold of Basal RLU [21]: 1.1 fold and 0.9 fold and 1 fold and 0.8 fold; Fold of Basal RLU [22]: 0.7 fold and 0.9 fold and 1 fold and 1.1 fold; Fold of Basal RLU [23]: 1.1 fold and 1 fold; Fold of Basal RLU [24]: 1 and 0.8 and 1.3; Fold of Basal RLU [25]: 1 fold and 0.8 fold and 0.9 fold and 1.3 fold; Fold of Basal RLU [26]: 2.3 fold and 1.9 fold; Fold of Basal RLU [27]: 1.5 and 1.4 and 1.3; Fold of Basal RLU [28]: 0.7 and 0.8 and 1; Fold of Basal RLU [29]: 0.9 fold and 0.8 fold and 1 fold; Fold of Basal RLU [30]: 0.8 and 0.6 and 0.7; Fold of Basal RLU [31]: 1.2 fold and 1.1 fold and 1.3 fold; Fold of Basal RLU [32]: 1.1 fold and 1.3 fold; Fold of Basal RLU [33]: 1 fold and 1.1 fold and 1.4 fold and 1.3 fold; Fold of Basal RLU [34]: 0.4 and 0.7 and 0.6 and 0.5; Fold of Basal RLU [35]: 1.3 fold and 0.9 fold and 1.2 fold and 1 fold; Fold of Basal RLU [36]: 0.8 fold and 1 fold; Fold of Basal RLU [37]: 0.6 fold and 0.8 fold and 0.4 fold
Cc1cc(C(=O)NC(C)(c2ccco2)c2ccco2)nn1-c1cccc(C(F)(F)F)c1 [‘4936]	0.6 and 0.7	1.4 fold and 1.2 fold and 1.7 fold and 2.2 fold	12.4 and 11.8 and 12 and 10.8	1.4 fold and 1.3 fold and 1.5 fold and 2 fold	1.4 and 1.2 and 1	0.7 fold and 1.1 fold and 0.6 fold	0.4 and 0.6 and 0.5 and 0.3	1 fold and 1.2 fold and 1.1 fold and 1.3 fold	1.1 fold and 1.2 fold and 1.3 fold and 1 fold	1.1 fold and 1.5 fold and 1.8 fold	0.8 and 0.4 and 0.6	1.3 fold and 1 fold and 1.2 fold and 1.1 fold	1.8 fold and 1.3 fold and 1.4 fold and 1.6 fold	1.2 fold and 0.9 fold and 1 fold and 1.3 fold	1.2 fold and 1.1 fold	0.8 fold and 0.6 fold and 1 fold	1.5 and 1.4 and 1.6 and 2.3	1.3 and 1.1 and 1.4 and 0.8	1.7 and 1.2 and 1.4 and 1.8	1 fold and 1.5 fold and 1.8 fold	Fold of Basal RLU [21]: 1.4 fold and 1.1 fold and 1.3 fold and 1.2 fold; Fold of Basal RLU [22]: 0.9 fold; Fold of Basal RLU [23]: 1.1 fold and 1.2 fold and 0.9 fold; Fold of Basal RLU [24]: 2.5 and 1.9 and 1.6 and 2.2; Fold of Basal RLU [25]: 1 fold and 1.1 fold and 1.2 fold; Fold of Basal RLU [26]: 1.3 fold and 1.4 fold and 1.1 fold and 1.8 fold; Fold of Basal RLU [27]: 1.5 and 1.4 and 1.6; Fold of Basal RLU [28]: 0.9 and 0.7 and 0.5; Fold of Basal RLU [29]: 1.1 fold and 1 fold; Fold of Basal RLU [30]: 1.1 and 1.2 and 0.9 and 0.8; Fold of Basal RLU [31]: 1 fold and 1.3 fold and 1.2 fold; Fold of Basal RLU [32]: 2.1 fold and 2.4 fold and 1.6 fold and 2.5 fold; Fold of Basal RLU [33]: 1 fold and 1.1 fold and 1.4 fold; Fold of Basal RLU [34]: 1 and 0.7 and 0.8; Fold of Basal RLU [35]: 0.9 fold and 1.1 fold and 1.2 fold and 1 fold; Fold of Basal RLU [36]: 1.2 fold and 0.9 fold; Fold of Basal RLU [37]: 1.4 fold and 0.8 fold and 1.2 fold
